For 8 molecules, Ki and IC50 results are on record in ChEMBL document CHEMBL2062461 (Eur J Med Chem, 2012).

The target of assay [1] is T1, Acetylcholinesterase (Homo sapiens, UniProt P22303).
Description: Inhibition of human recombinant AChE assessed as dissociation constant for enzyme-inhibitor complex using acetylthiocholine substrate preincubated for 5 mins before substrate addition by Ellman's method
Assay [2] addresses T1, Acetylcholinesterase. The source holds these as a separate data set.
Description: Inhibition of human recombinant AChE using acetylthiocholine substrate preincubated for 5 mins before substrate addition by Ellman's method
A further assay deals with Cholinesterase (Homo sapiens, UniProt P06276).
Assay [3] concerns the target T1, Acetylcholinesterase. The source holds these as a separate data set.
Description: Inhibition of human recombinant AChE assessed as dissociation constant for enzyme-inhibitor-substrate complex using acetylthiocholine substrate preincubated for 5 mins before substrate addition by Ellman's method

Each structure is given as a SMILES string.

Cholinesterase, sequence (P06276 whole entry): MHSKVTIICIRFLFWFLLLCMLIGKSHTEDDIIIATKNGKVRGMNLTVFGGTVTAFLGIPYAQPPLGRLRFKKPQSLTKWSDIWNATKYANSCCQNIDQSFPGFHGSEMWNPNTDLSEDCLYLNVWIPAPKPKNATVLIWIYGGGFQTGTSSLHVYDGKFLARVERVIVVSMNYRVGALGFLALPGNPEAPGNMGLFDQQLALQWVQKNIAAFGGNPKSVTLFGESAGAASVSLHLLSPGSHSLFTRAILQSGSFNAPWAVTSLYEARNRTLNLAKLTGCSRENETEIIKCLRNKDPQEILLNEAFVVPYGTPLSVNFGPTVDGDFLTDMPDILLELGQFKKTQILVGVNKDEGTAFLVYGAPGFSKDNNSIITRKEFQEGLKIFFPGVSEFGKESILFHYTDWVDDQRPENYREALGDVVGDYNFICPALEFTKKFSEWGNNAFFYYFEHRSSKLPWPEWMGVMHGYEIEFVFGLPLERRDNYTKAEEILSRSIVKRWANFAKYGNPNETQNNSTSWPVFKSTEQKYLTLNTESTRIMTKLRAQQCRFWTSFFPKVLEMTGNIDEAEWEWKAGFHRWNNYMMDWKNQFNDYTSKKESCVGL
T1 sequence (P22303 whole entry): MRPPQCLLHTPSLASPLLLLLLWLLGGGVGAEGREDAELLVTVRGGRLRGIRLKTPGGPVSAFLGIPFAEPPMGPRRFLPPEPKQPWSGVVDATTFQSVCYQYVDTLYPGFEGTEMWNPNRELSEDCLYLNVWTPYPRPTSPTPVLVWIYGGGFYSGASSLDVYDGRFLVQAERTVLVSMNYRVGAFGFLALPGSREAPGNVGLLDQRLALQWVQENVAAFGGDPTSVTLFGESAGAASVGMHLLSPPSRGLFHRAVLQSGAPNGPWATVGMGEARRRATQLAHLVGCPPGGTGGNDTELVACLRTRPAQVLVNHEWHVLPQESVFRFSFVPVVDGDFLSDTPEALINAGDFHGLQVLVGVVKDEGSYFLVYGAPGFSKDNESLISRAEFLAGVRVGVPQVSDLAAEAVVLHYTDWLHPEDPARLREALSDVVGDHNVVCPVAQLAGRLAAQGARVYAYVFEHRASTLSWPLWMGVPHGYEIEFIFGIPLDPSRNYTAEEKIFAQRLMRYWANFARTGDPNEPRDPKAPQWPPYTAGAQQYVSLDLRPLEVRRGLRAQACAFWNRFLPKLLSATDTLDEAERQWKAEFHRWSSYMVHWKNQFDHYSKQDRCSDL

Broadly, the Ki is the dissociation constant of the complex between target and ligand, obtained from inhibition or displacement. Broadly, the IC50 is the point on the concentration scale where inhibition reaches its midpoint. With `O=C(CCN1CCCCC1)N1CCN(CCNc2c3c(nc4ccccc24)CCCC3)CC1`, the results for the Ki on Acetylcholinesterase [1] and at Acetylcholinesterase [3] were 16.8 nM and 76.1 nM, respectively. The IC50 on Acetylcholinesterase [2] worked out at 51.7 nM; at Cholinesterase, 77.8 nM.
`CN(CCC(=O)N1CCN(CCNc2c3c(nc4ccccc24)CCCC3)CC1)C1CCCCC1`: the Ki on Acetylcholinesterase [1] amounted to 0.38 nM; at Acetylcholinesterase [3] it was 0.318 nM. For the same molecule, the IC50 on Acetylcholinesterase [2] amounted to 14.9 nM; against Cholinesterase, 63.7 nM.
Regarding `CCN(CCC(=O)N1CCN(CCNc2c3c(nc4ccccc24)CCCC3)CC1)C1CCCCC1`, the Ki at Acetylcholinesterase [1] was found to be 1.35 nM; at Acetylcholinesterase [3] it was 3.73 nM. The IC50 was determined as 4.97 nM against Acetylcholinesterase [2] and 41.2 nM at Cholinesterase.
Regarding `CN(CCC(=O)N1CCN(CCNc2c3c(nc4ccccc24)CCCC3)CC1)c1ccccc1`, the Ki on Acetylcholinesterase [1] was determined as 13.7 nM; at Acetylcholinesterase [3], 85.5 nM. The IC50 was determined as 70.3 nM against Acetylcholinesterase [2] and 33.7 nM on Cholinesterase.
Turning to `CN(CCCN1CCN(CCNc2c3c(nc4ccccc24)CCCC3)CC1)C1CCCCC1`, the figures for the inhibitory constant (Ki) on Acetylcholinesterase [1] and on Acetylcholinesterase [3] were 10.3 nM and 47.6 nM, respectively. Also, the results for the IC50 against Acetylcholinesterase [2] and on Cholinesterase were 40.7 nM and 137 nM, respectively.
For `CCN(CCCN1CCN(CCNc2c3c(nc4ccccc24)CCCC3)CC1)C1CCCCC1`, the IC50 against Acetylcholinesterase [2] is 194 nM; against Cholinesterase, 126 nM.
For `CN(CCCN1CCN(CCNc2c3c(nc4ccccc24)CCCC3)CC1)c1ccccc1`, the Ki on Acetylcholinesterase [1] stood at 80 nM; at Acetylcholinesterase [3], 24.7 nM. The IC50 against Acetylcholinesterase [2] was determined as 84.8 nM; against Cholinesterase, 211 nM.
Turning to `O=C(CCNCCNc1c2c(nc3ccccc13)CCCC2)N1CCN(CCNc2c3c(nc4ccccc24)CCCC3)CC1`, the figures for the IC50 against Acetylcholinesterase [2] and at Cholinesterase were 4.49 nM and 1520 nM, respectively.
